One molecule from paper PMC12979188, “Systematic analyses of lipid mobilization by human lipid transfer proteins” (Nature, 2026) can be followed below.

One assay concerns the target RBP4 (Homo sapiens, UniProt P02753). Put plainly: affinity purification, SEC and mass spectrometry lipidomics. The assay is classed as cell-based. The conditions noted are these: in cellulo, HEK293; retinoid form not specified beyond vitamin A.
The target of another assay is T1, RBP1 (Homo sapiens, UniProt P09455).
T1 sequence (P09455 1-135): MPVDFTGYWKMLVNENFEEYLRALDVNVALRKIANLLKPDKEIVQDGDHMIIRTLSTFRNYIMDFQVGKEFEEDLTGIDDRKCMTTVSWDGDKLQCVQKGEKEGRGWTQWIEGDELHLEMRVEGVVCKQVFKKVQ
The assay is described as above. The conditions noted are these: in cellulo, HEK293; retinoid form not specified beyond vitamin A. The assay is classed as cell-based.

Consider `CC1=C(/C=C/C(C)=C/C=C/C(C)=C/CO)C(C)(C)CCC1` [vitamin A], for which the “affinity purification, SEC and mass spectrometry lipidomics” value on RBP4 is “RBP1 and RBP4 formed complexes with vitamin A only in the cellular context”; at RBP1, “RBP1 and RBP4 formed complexes with vitamin A only in the cellular context”.
